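Five concentrations, 48 hours, 96-well plates. GI50 = concentration required for 50% inhibition of growth. At the TGI there is no net growth.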
How the values were obtained:
Experiment in all cases: NCI anticancer screen, dose series, 48 h
MDA-MB-435 = tested on: MDA-MB-435
CCRF-CEM leukemia = tested on: CCRF-CEM leukemia
T-47D breast = tested on: T-47D breast
HCT-116 colon = tested on: HCT-116 colon
HOP-62 NSCLC = tested on: HOP-62 NSCLC
ACHN renal = tested on: ACHN renal
HOP-92 NSCLC = tested on: HOP-92 NSCLC
HCC-2998 colon = tested on: HCC-2998 colon
HCT-15 colon = tested on: HCT-15 colon
UACC-257 melanoma = tested on: UACC-257 melanoma
786-0 renal = tested on: 786-0 renal
KM12 colon = tested on: KM12 colon
OVCAR-5 ovarian = tested on: OVCAR-5 ovarian
EKVX NSCLC = tested on: EKVX NSCLC
DU-145 prostate = tested on: DU-145 prostate
PC-3 prostate = tested on: PC-3 prostate
UACC-62 melanoma = tested on: UACC-62 melanoma
UO-31 renal = tested on: UO-31 renal
SK-MEL-5 melanoma = tested on: SK-MEL-5 melanoma
SNB-19 CNS = tested on: SNB-19 CNS
HT29 colon = tested on: HT29 colon
U251 CNS = tested on: U251 CNS
SW-620 colon = tested on: SW-620 colon
MALME-3M melanoma = tested on: MALME-3M melanoma
SF-539 CNS = tested on: SF-539 CNS
NCI-H460 lung = tested on: NCI-H460 lung
RXF 393 renal = tested on: RXF 393 renal
SN12C renal = tested on: SN12C renal

**Q.** Which results are given for `O=c1ncc(I)cn1C1CC(O)C(CO)O1` (stereo unspecified)?
**A.** GI50 (MDA-MB-435): 1.02 mM; TGI (MDA-MB-435): > 3.25 mM; GI50 (CCRF-CEM leukemia): 0.709 mM; TGI (CCRF-CEM leukemia): > 3.25 mM; GI50 (T-47D breast): 2.22 mM; TGI (T-47D breast): > 3.25 mM; GI50 (HCT-116 colon): 1.31 mM; TGI (HCT-116 colon): > 3.25 mM; GI50 (HOP-62 NSCLC): 2.94 mM; TGI (HOP-62 NSCLC): > 3.25 mM; GI50 (ACHN renal): 3.12 mM; TGI (ACHN renal): > 3.25 mM; GI50 (HOP-92 NSCLC): > 3.25 mM; TGI (HOP-92 NSCLC): > 3.25 mM; GI50 (HCC-2998 colon): 2.91 mM; TGI (HCC-2998 colon): > 3.25 mM; GI50 (HCT-15 colon): 1.68 mM; TGI (HCT-15 colon): > 3.25 mM; GI50 (UACC-257 melanoma): > 3.25 mM; TGI (UACC-257 melanoma): > 3.25 mM; GI50 (786-0 renal): 3.1 mM; TGI (786-0 renal): > 3.25 mM; GI50 (KM12 colon): 1.74 mM; TGI (KM12 colon): > 3.25 mM; GI50 (OVCAR-5 ovarian): > 3.25 mM; TGI (OVCAR-5 ovarian): > 3.25 mM; GI50 (EKVX NSCLC): > 3.25 mM; TGI (EKVX NSCLC): > 3.25 mM; GI50 (DU-145 prostate): 1.53 mM; TGI (DU-145 prostate): > 3.25 mM; GI50 (PC-3 prostate): > 3.25 mM; TGI (PC-3 prostate): > 3.25 mM; GI50 (UACC-62 melanoma): 1.48 mM; TGI (UACC-62 melanoma): > 3.25 mM; GI50 (UO-31 renal): 0.711 mM; TGI (UO-31 renal): 1.76 mM; GI50 (SK-MEL-5 melanoma): 2 mM; TGI (SK-MEL-5 melanoma): > 3.25 mM; GI50 (SNB-19 CNS): > 3.25 mM; TGI (SNB-19 CNS): > 3.25 mM; GI50 (HT29 colon): 1.83 mM; TGI (HT29 colon): > 3.25 mM; GI50 (U251 CNS): 1.16 mM; TGI (U251 CNS): > 3.25 mM; GI50 (SW-620 colon): 1.13 mM; TGI (SW-620 colon): > 3.25 mM; GI50 (MALME-3M melanoma): > 3.25 mM; TGI (MALME-3M melanoma): > 3.25 mM; GI50 (SF-539 CNS): 2.36 mM; TGI (SF-539 CNS): > 3.25 mM; GI50 (NCI-H460 lung): 1.54 mM; TGI (NCI-H460 lung): > 3.25 mM; GI50 (RXF 393 renal): > 3.25 mM; TGI (RXF 393 renal): > 3.25 mM; GI50 (SN12C renal): 2.71 mM; TGI (SN12C renal): > 3.25 mM

Reference: PubChem BioAssay (NCI)
